Results published in patent US20230201149A1, “METHODS OF ANTIPATHOGENIC TREATMENT” (priority 2020, published 2023).
Read-outs that look alike come from different tables or passages of the source.

How the values were obtained:
severe COVID patients = conditions: cited from earlier work
COVID-19 patients [1] = conditions: 50 treated patients, cited from earlier work
[2] = elderly subjects, six months of 45 mg zinc/day as a gluconate; cited from earlier work
COVID-19 = conditions: cited from earlier work
[3] = test system: COVID-19 coronavirus in human lung cells; assay: Antiviral potency in human lung cells; type: cell-based
Protocol: Earlier research of Nafamostat indicated it would not have sufficient concentration in the plasma to cause death of the virus. This was based on trialing drugs in monkey kidney cells. It was determined it would be more realistic to trial the drugs in human lung cells. The results were dramatic in that vastly different effects resulted.

COVID-infected cells = conditions: cited from earlier work
[4] = test system: COVID-19 coronavirus in human lung cells; conditions: read-out: 50% kill rate IC50; cited from earlier work
[5] = in vivo, cited from earlier work
COVID-19 patients [6] = conditions: cited from earlier work; for inflammatory markers (CRP and ferritin): during IV N-acetylcysteine administration
SARS-Cov-2 [7] = conditions: replication of SARS-Cov-2, cited from earlier work
SARS-Cov-2 [8] = assay: Inhibition of replication of SARS-Cov-2; type: cell-based
ARDS patients = conditions: intravenous, P<0.001; cited from earlier work
[9] = Alzheimer patients, 200 microg/day, cited from earlier work

Molecule: Heparin
- benefit in less severe cases (severe COVID patients; less severe cases): no benefit
- death rate (severe COVID patients; most severe cases, reduced from 64%): 40%

Molecule: C=C1CC[C@H](O)C/C1=C/C=C1\CCC[C@]2(C)[C@@H]([C@H](C)CCCC(C)(C)O)CC[C@@H]12 [calcifediol]
- patients requiring admission to the ICU (COVID-19 patients [1]; oral, untreated 50%): 2%
- deaths (COVID-19 patients [1]): none died

Molecule: [Zn] [Zinc]
- concentration of plasma hsCRP, IL-6, MCP-1, VCAM-1, secretory phospholipase A2, MDA+HAE [2]: decreases

Molecule: Aprotinin
- increase of effectiveness by omeprazole (COVID-19): 2.7 fold

Molecule: N=C(N)c1ccc2cc(OC(=O)c3ccc(N=C(N)N)cc3)ccc2c1 [Nafamostat]
- decrease of IC50, human lung cells vs monkey kidney cells [3]: 6000 fold
- potency relative to Remdesivir ([3]; human lung cells): 600 fold
- COVID-induced cytopathogenic effect (CPE) (COVID-infected cells): inhibits
- effect on the virus replication cycle (COVID-infected cells; high levels of double-strand RNA in treated infected cells): limited effects
- IC50 [4]: 0.0022 µM

Molecule: CC(=O)N[C@@H](CS)C(=O)O [N-acetylcysteine]
- bioavailability ([5]; po): 6-10%
- half-life, reduced N-acetylcysteine [5]: about 2 h
- half-life, total N-acetylcysteine [5]: about 6 h
- bilirubin (total and direct) (COVID-19 patients [6]; G6PD-deficient patient, IV NAC 600 mg every 12 h for six days): sustained reduction
- ALT (COVID-19 patients [6]; G6PD-deficient patient, after IV NAC 30,000 mg over 24 h for two days, peak before 263): 100 U/L
- AST (COVID-19 patients [6]; G6PD-deficient patient, after IV NAC 30,000 mg over 24 h for two days, peak before 338): 62 U/L
- NLR (COVID-19 patients [6]; G6PD-deficient patient, sustained after the first dose): decrease
- inflammatory markers (CRP and ferritin) (COVID-19 patients [6]): significant overall reduction
- inflammatory markers (CRP and ferritin) (COVID-19 patients [6]; listed as NAC): significantly reduced
- patients eventually discharged (COVID-19 patients [6]; of ten patients): Eight
- lung functions (COVID-19 patients [6]; ten respirator-dependent COVID-19 patients): improved

Molecule: Cc1c(O)cccc1C(=O)N[C@@H](CSc1ccccc1)[C@H](O)CN1C[C@H]2CCCC[C@H]2C[C@H]1C(=O)NC(C)(C)C [nelfinavir, Nelfinavir]
- EC50 (SARS-Cov-2 [7]; read-out: effective concentration for 50% inhibition (EC50)): 1.13 µM
- EC90 (SARS-Cov-2 [7]; read-out: effective concentration for 90% inhibition (EC90)): 1.76 µM
- trough and peak serum concentration relative to EC50 (SARS-Cov-2 [8]): three to six times higher

Molecule: [Se] [selenium]
- drop in IL-1beta, R value (ARDS patients): −0.624
- drop in IL-6, R value (ARDS patients): 0.642
- serum high sensitivity C-reactive protein ([9]; P<0.001): reduced
- total glutathione ([9]; P=0.001): significantly increased
